{"source": "BindingDB's records for doi:10.1021/jm00055a007", "about": "(Abbott Laboratories, 1993)", "target": "Gonadotropin-releasing hormone receptor (Rattus norvegicus) (UniProt P30969)", "sequence (P30969 whole entry, looked up)": "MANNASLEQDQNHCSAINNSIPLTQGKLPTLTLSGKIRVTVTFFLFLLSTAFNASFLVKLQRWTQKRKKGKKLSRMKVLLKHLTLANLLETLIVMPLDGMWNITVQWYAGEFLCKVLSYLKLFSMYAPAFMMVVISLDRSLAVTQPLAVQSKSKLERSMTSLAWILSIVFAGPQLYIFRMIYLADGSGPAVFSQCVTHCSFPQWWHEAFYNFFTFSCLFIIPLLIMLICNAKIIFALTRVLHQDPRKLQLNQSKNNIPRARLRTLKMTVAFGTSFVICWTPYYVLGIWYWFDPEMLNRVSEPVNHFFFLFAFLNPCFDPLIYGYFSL", "note": "Square brackets hold non-standard residues; d marks the D form. Peptide text beside a SMILES is read from it. 1Nal = N[C@@H](Cc1cccc2ccccc12)C(=O)O; pGlu = O=C1CC[C@@H](C(=O)O)N1; NMeS = CN[C@@H](CO)C(=O)O"}
{"compound": "CC(C)C[C@H](NC(=O)CNC(=O)[C@H](Cc1ccc(O)cc1)NC(=O)[C@H](CO)NC(=O)[C@H](Cc1c[nH]c2ccccc12)NC(=O)[C@H](Cc1cnc[nH]1)NC(=O)[C@@H]1CCC(=O)N1)C(=O)N[C@@H](CCCN=C(N)N)C(=O)N1CCC[C@H]1C(=O)NCC(=O)O", "note": "[CAS_35263-73-1]", "values": [{"measurement": "Ki", "result": 1260, "unit": "pM"}]}
{"compound": "CCNC(=O)[C@@H]1CCCN1C(=O)[C@H](CCCN=C(N)N)NC(=O)[C@H](CC(C)C)NC(=O)[C@@H](Cc1c[nH]c2ccccc12)NC(=O)[C@H](Cc1ccc(O)cc1)NC(=O)[C@H](CO)NC(=O)[C@H](Cc1c[nH]c2ccccc12)NC(=O)[C@H](Cc1cnc[nH]1)N(C)C(=O)[C@@H]1CCC(=O)N1", "note": "[deslorelin 2NMeHis]", "values": [{"measurement": "Ki", "result": 1410, "unit": "pM"}]}
{"compound": "CCNC(=O)[C@@H]1CCCN1C(=O)[C@H](CCCN=C(N)N)NC(=O)[C@H](CC(C)C)NC(=O)[C@@H](Cc1c[nH]c2ccccc12)NC(=O)[C@H](Cc1ccc(O)cc1)NC(=O)[C@H](CO)NC(=O)[C@H](Cc1cccc2ccccc12)N(C)C(=O)[C@H](Cc1c[nH]cn1)NC(=O)[C@@H]1CCC(=O)N1", "note": "[deslorelin 3NMe1Nal]", "values": [{"measurement": "Ki", "result": 1000, "unit": "pM"}]}
{"compound": "CCNC(=O)[C@@H]1CCCN1C(=O)[C@H](CCCN=C(N)N)NC(=O)[C@H](CC(C)C)NC(=O)[C@@H](Cc1c[nH]c2ccccc12)NC(=O)[C@H](Cc1ccc(O)cc1)N(C)C(=O)[C@H](CO)NC(=O)[C@H](Cc1c[nH]c2ccccc12)NC(=O)[C@H](Cc1c[nH]cn1)NC(=O)[C@@H]1CCC(=O)N1", "note": "[deslorelin 5NMeTyr]", "values": [{"measurement": "Ki", "result": 90, "unit": "pM"}]}
{"compound": "CCNC(=O)[C@@H]1CCCN1C(=O)[C@H](CCCN=C(N)N)NC(=O)[C@H](CC(C)C)N(C)C(=O)[C@@H](Cc1c[nH]c2ccccc12)NC(=O)[C@H](Cc1ccc(O)cc1)NC(=O)[C@H](CO)NC(=O)[C@H](Cc1c[nH]c2ccccc12)NC(=O)[C@H](Cc1cnc[nH]1)NC(=O)[C@@H]1CCC(=O)N1", "note": "[deslorelin 7NMeLeu]", "values": [{"measurement": "Ki", "result": 60, "unit": "pM"}]}
{"compound": "CCNC(=O)[C@@H]1CCCN1C(=O)[C@H](CCCN=C(N)N)N(C)C(=O)[C@H](CC(C)C)NC(=O)[C@@H](Cc1c[nH]c2ccccc12)NC(=O)[C@H](Cc1ccc(O)cc1)NC(=O)[C@H](CO)NC(=O)[C@H](Cc1c[nH]c2ccccc12)NC(=O)[C@H](Cc1cnc[nH]1)NC(=O)[C@@H]1CCC(=O)N1", "note": "[deslorelin 8NMeArg]", "values": [{"measurement": "Ki", "result": 310, "unit": "pM"}]}
{"compound": "CC(C)C[C@H](NC(=O)[C@@H](Cc1c[nH]c2ccccc12)NC(=O)[C@H](Cc1ccc(O)cc1)NC(=O)[C@H](CO)NC(=O)[C@H](Cc1c[nH]c2ccccc12)NC(=O)[C@H](Cc1c[nH]cn1)NC(=O)[C@@H]1CCC(=O)N1)C(=O)N[C@@H](CCCN=C(N)N)C(=O)N1CCC[C@H]1C(=O)N(C)CC(N)=O", "note": "[deslorelin 10SarNH2]", "values": [{"measurement": "Ki", "result": 320, "unit": "pM"}]}
{"compound": "CCNC(=O)[C@@H]1CCCN1C(=O)[C@H](CCCN=C(N)N)NC(=O)[C@H](CC(C)C)NC(=O)[C@@H](Cc1c[nH]c2ccccc12)NC(=O)[C@H](Cc1ccc(O)cc1)NC(=O)[C@H](CO)NC(=O)[C@H](Cc1cccc2ccccc12)NC(=O)[C@H](Cc1cnc[nH]1)NC(=O)[C@@H]1CCC(=O)N1", "note": "[deslorelin 31Nal]", "values": [{"measurement": "Ki", "result": 20, "unit": "pM"}]}
{"compound": "CCNC(=O)[C@@H]1CCCN1C(=O)[C@H](CCCN=C(N)N)NC(=O)[C@H](CC(C)C)NC(=O)[C@@H](Cc1c[nH]c2ccccc12)NC(=O)[C@H](Cc1ccc(O)cc1)NC(=O)[C@H](CO)NC(=O)[C@H](Cc1c[nH]c2ccccc12)NC(=O)[C@H](Cc1cnc[nH]1)NC(=O)[C@@H]1CCC(=O)N1", "note": "[deslorelin]", "values": [{"measurement": "Ki", "result": 10, "unit": "pM"}]}
{"compound": "CCNC(=O)[C@@H]1CCCN1C(=O)[C@H](CCCN=C(N)N)NC(=O)[C@H](CC(C)C)NC(=O)[C@@H](CC(C)C)NC(=O)[C@H](Cc1ccc(O)cc1)NC(=O)[C@H](CO)NC(=O)[C@H](Cc1c[nH]c2ccccc12)NC(=O)[C@H](Cc1cnc[nH]1)N(C)C(=O)[C@@H]1CCC(=O)N1", "note": "[leuprolide 2 NMeHis]", "values": [{"measurement": "Ki", "result": 33100, "unit": "pM"}]}
{"compound": "CCNC(=O)[C@@H]1CCCN1C(=O)[C@H](CCCN=C(N)N)NC(=O)[C@H](CC(C)C)NC(=O)[C@@H](CC(C)C)NC(=O)[C@H](Cc1ccc(O)cc1)NC(=O)[C@H](CO)NC(=O)[C@H](Cc1c[nH]c2ccccc12)NC(=O)[C@H](Cc1ccccc1)NC(=O)[C@@H]1CCC(=O)N1", "note": "[leuprolide 2 Phe] ([pGlu]FWSY[dL]LRP-NHEt)", "values": [{"measurement": "Ki", "result": 2190, "unit": "pM"}]}
{"compound": "CCNC(=O)[C@@H]1CCCN1C(=O)[C@H](CCCN=C(N)N)NC(=O)[C@H](CC(C)C)NC(=O)[C@@H](CC(C)C)NC(=O)[C@H](Cc1ccc(O)cc1)NC(=O)[C@H](CO)NC(=O)[C@H](Cc1c[nH]c2ccccc12)NC(=O)[C@H](Cc1ccccc1)N(C)C(=O)[C@@H]1CCC(=O)N1", "note": "[leuprolide 2NMePhe]", "values": [{"measurement": "Ki", "result": 12000, "unit": "pM"}]}
{"compound": "CCNC(=O)[C@@H]1CCCN1C(=O)[C@H](CCCN=C(N)N)NC(=O)[C@H](CC(C)C)NC(=O)[C@@H](CC(C)C)NC(=O)[C@H](Cc1ccc(O)cc1)NC(=O)[C@H](CO)NC(=O)[C@H](Cc1cccc2ccccc12)N(C)C(=O)[C@H](Cc1c[nH]cn1)NC(=O)[C@@H]1CCC(=O)N1", "note": "[leuprolide 3NMe1Nal]", "values": [{"measurement": "Ki", "result": 3240, "unit": "pM"}]}
{"compound": "CCNC(=O)[C@@H]1CCCN1C(=O)[C@H](CCCN=C(N)N)NC(=O)[C@H](CC(C)C)NC(=O)[C@@H](CC(C)C)NC(=O)[C@H](Cc1ccc(O)cc1)NC(=O)[C@H](CO)N(C)C(=O)[C@H](Cc1c[nH]c2ccccc12)NC(=O)[C@H](Cc1c[nH]cn1)NC(=O)[C@@H]1CCC(=O)N1", "note": "[leuprolide 4NMeSer] ([pGlu]HW[NMeS]Y[dL]LRP-NHEt)", "values": [{"measurement": "Ki", "result": 1410, "unit": "pM"}]}
{"compound": "CCNC(=O)[C@@H]1CCCN1C(=O)[C@H](CCCN=C(N)N)NC(=O)[C@H](CC(C)C)NC(=O)[C@@H](CC(C)C)N(C)C(=O)[C@H](Cc1ccc(O)cc1)NC(=O)[C@H](CO)NC(=O)[C@H](Cc1c[nH]c2ccccc12)NC(=O)[C@H](Cc1cnc[nH]1)NC(=O)[C@@H]1CCC(=O)N1", "note": "[leuprolide 6NMeDLeu]", "values": [{"measurement": "Ki", "result": 3800, "unit": "pM"}]}
{"compound": "CCNC(=O)[C@@H]1CCCN1C(=O)[C@H](CCCN=C(N)N)NC(=O)[C@H](CC(C)C)N(C)C(=O)[C@@H](CC(C)C)NC(=O)[C@H](Cc1ccc(O)cc1)NC(=O)[C@H](CO)NC(=O)[C@H](Cc1c[nH]c2ccccc12)NC(=O)[C@H](Cc1c[nH]cn1)NC(=O)[C@@H]1CCC(=O)N1", "note": "[leuprolide 7NMeLeu]", "values": [{"measurement": "Ki", "result": 160, "unit": "pM"}]}
{"compound": "CCNC(=O)[C@@H]1CCCN1C(=O)[C@H](CCCN=C(N)N)N(C)C(=O)[C@H](CC(C)C)NC(=O)[C@@H](CC(C)C)NC(=O)[C@H](Cc1ccc(O)cc1)NC(=O)[C@H](CO)NC(=O)[C@H](Cc1c[nH]c2ccccc12)NC(=O)[C@H](Cc1c[nH]cn1)NC(=O)[C@@H]1CCC(=O)N1", "note": "[leuprolide 8NMeArg]", "values": [{"measurement": "Ki", "result": 347000, "unit": "pM"}]}
{"compound": "CCNC(=O)[C@@H]1CCCN1C(=O)[C@H](CCCN=C(N)N)NC(=O)[C@H](CC(C)C)NC(=O)[C@@H](CC(C)C)NC(=O)[C@H](Cc1ccc(O)cc1)NC(=O)[C@H](CO)NC(=O)[C@H](Cc1cccc2ccccc12)NC(=O)[C@H](Cc1c[nH]cn1)NC(=O)[C@@H]1CCC(=O)N1", "note": "[leuprolide 31Nal] ([pGlu]H[1Nal]SY[dL]LRP-NHEt)", "values": [{"measurement": "Ki", "result": 90, "unit": "pM"}]}
{"compound": "CC(C)C[C@H](NC(=O)[C@@H](Cc1ccc2ccccc2c1)NC(=O)[C@H](Cc1ccc(O)cc1)NC(=O)[C@H](CO)NC(=O)[C@H](Cc1c[nH]c2ccccc12)NC(=O)[C@H](Cc1cnc[nH]1)N(C)C(=O)[C@@H]1CCC(=O)N1)C(=O)N[C@@H](CCCN=C(N)N)C(=O)N1CCC[C@H]1C(=O)NCC(N)=O", "note": "[nafarelin 2NMeHis]", "values": [{"measurement": "Ki", "result": 1410, "unit": "pM"}]}
{"compound": "CC(C)C[C@H](NC(=O)[C@@H](Cc1ccc2ccccc2c1)NC(=O)[C@H](Cc1ccc(O)cc1)NC(=O)[C@H](CO)NC(=O)[C@H](Cc1c[nH]c2ccccc12)NC(=O)[C@H](Cc1ccccc1)N(C)C(=O)[C@@H]1CCC(=O)N1)C(=O)N[C@@H](CCCN=C(N)N)C(=O)N1CCC[C@H]1C(=O)NCC(N)=O", "note": "[nafarelin 2NMePhe]", "values": [{"measurement": "Ki", "result": 300, "unit": "pM"}]}
{"compound": "CC(C)C[C@H](NC(=O)[C@@H](Cc1ccc2ccccc2c1)NC(=O)[C@H](Cc1ccc(O)cc1)NC(=O)[C@H](CO)NC(=O)[C@H](Cc1c[nH]c2ccccc12)NC(=O)[C@H](Cc1ccccc1)NC(=O)[C@@H]1CCC(=O)N1)C(=O)N[C@@H](CCCN=C(N)N)C(=O)N1CCC[C@H]1C(=O)NCC(N)=O", "note": "[nafarelin 2Phe]", "values": [{"measurement": "Ki", "result": 70, "unit": "pM"}]}
{"compound": "CC(C)C[C@H](NC(=O)[C@@H](Cc1ccc2ccccc2c1)NC(=O)[C@H](Cc1ccc(O)cc1)NC(=O)[C@H](CO)NC(=O)[C@H](Cc1cccc2ccccc12)N(C)C(=O)[C@H](Cc1cnc[nH]1)NC(=O)[C@@H]1CCC(=O)N1)C(=O)N[C@@H](CCCN=C(N)N)C(=O)N1CCC[C@H]1C(=O)NCC(N)=O", "note": "[nafarelin 3NMe1Nal]", "values": [{"measurement": "Ki", "result": 740, "unit": "pM"}]}
{"compound": "CC(C)C[C@H](NC(=O)[C@@H](Cc1ccc2ccccc2c1)NC(=O)[C@H](Cc1ccc(O)cc1)NC(=O)[C@H](CO)N(C)C(=O)[C@H](Cc1c[nH]c2ccccc12)NC(=O)[C@H](Cc1c[nH]cn1)NC(=O)[C@@H]1CCC(=O)N1)C(=O)N[C@@H](CCCN=C(N)N)C(=O)N1CCC[C@H]1C(=O)NCC(N)=O", "note": "[nafarelin 4NMeSer]", "values": [{"measurement": "Ki", "result": 40, "unit": "pM"}]}
{"compound": "CC(C)C[C@H](NC(=O)[C@@H](Cc1ccc2ccccc2c1)NC(=O)[C@H](Cc1ccc(O)cc1)N(C)C(=O)[C@H](CO)NC(=O)[C@H](Cc1c[nH]c2ccccc12)NC(=O)[C@H](Cc1c[nH]cn1)NC(=O)[C@@H]1CCC(=O)N1)C(=O)N[C@@H](CCCN=C(N)N)C(=O)N1CCC[C@H]1C(=O)NCC(N)=O", "note": "[nafarelin 5NMeTyr]", "values": [{"measurement": "Ki", "result": 30, "unit": "pM"}]}
{"compound": "CC(C)C[C@H](NC(=O)[C@@H](Cc1ccc2ccccc2c1)N(C)C(=O)[C@H](Cc1ccc(O)cc1)NC(=O)[C@H](CO)NC(=O)[C@H](Cc1c[nH]c2ccccc12)NC(=O)[C@H](Cc1c[nH]cn1)NC(=O)[C@@H]1CCC(=O)N1)C(=O)N[C@@H](CCCN=C(N)N)C(=O)N1CCC[C@H]1C(=O)NCC(N)=O", "note": "[nafarelin 6NMe2Nal]", "values": [{"measurement": "Ki", "result": 2690, "unit": "pM"}]}
{"compound": "CC(C)C[C@@H](C(=O)N[C@@H](CCCN=C(N)N)C(=O)N1CCC[C@H]1C(=O)NCC(N)=O)N(C)C(=O)[C@@H](Cc1ccc2ccccc2c1)NC(=O)[C@H](Cc1ccc(O)cc1)NC(=O)[C@H](CO)NC(=O)[C@H](Cc1c[nH]c2ccccc12)NC(=O)[C@H](Cc1c[nH]cn1)NC(=O)[C@@H]1CCC(=O)N1", "note": "[nafarelin 7NMeLeu]", "values": [{"measurement": "Ki", "result": 30, "unit": "pM"}]}
{"compound": "CC(C)C[C@H](NC(=O)[C@@H](Cc1ccc2ccccc2c1)NC(=O)[C@H](Cc1ccc(O)cc1)NC(=O)[C@H](CO)NC(=O)[C@H](Cc1c[nH]c2ccccc12)NC(=O)[C@H](Cc1c[nH]cn1)NC(=O)[C@@H]1CCC(=O)N1)C(=O)N(C)[C@@H](CCCN=C(N)N)C(=O)N1CCC[C@H]1C(=O)NCC(N)=O", "note": "[nafarelin 8NMeArg]", "values": [{"measurement": "Ki", "result": 28200, "unit": "pM"}]}
